Experimental data as given in patent US20250275949A1, “USE OF DITERPENE COMPOUND DERIVATIVE OR SALT THEREOF IN PREPARATION OF MEDICINE FOR PREVENTING AND TREATING ATOPIC DERMATITIS” (SUZHOU PHARMAVAN CO., LTD, priority 2022, published 2025).

Experiments:
Type in all cases: in vivo, BALB/c mice
OXA-induced AD model [1] = test: OXA-induced AD mouse model, Example 1 (eight compounds in castor oil); details: 0.1% in castor oil, day 7 to day 23; for OXA-induced AD-like lesions (conclusion of Example 1): auricle
Excerpt: Experimental animals involved in the following embodiments were SPF-grade BALB/c mice (≥7 weeks old, female). The scoring criteria for skin lesions involved in the following embodiments are shown in Table 1 and the histopathological scoring criteria are shown in Table 2. [table] The day of grouping was defined as day 0. Mice were randomly divided into 11 groups: blank control (NC) group, model (OXA) group, blank castor oil (vehicle) group, Compound 1 administration group, Compound 2 administration group, Compound 3 administration group, Compound 4 administration group, Compound 5 administration group, Compound 6 administration group, Compound 7 administration group, and Compound 8 administration 10 group, with 5 animals in each group. Each group except NC group was treated for modeling AD. Day 0:0.8%-OXA solution was applied to the auricle of both ears at 20 μL per ear. Day 7, 10, 12, 14, 17, 19, 21, and 23:0.4%-OXA solution was applied to the auricle of both ears at 20 μL per ear. Each group except NC group and OXA group was administrated. The administration started from day 7 to day 23, and the mice was administrated once a day at the auricle of both ears by 50 μL per ear (100 μL per mouse). The condition of the animals was observed during the experimental period, and the auricle was scored for skin lesions (see Table 1 for skin lesion scoring criteria), and the thickness of the ears was measured. [table]

OXA-induced AD model [2] = test: OXA-induced AD mouse model, Example 2 (Compound 1 cream; lesion score, ear thickness, immunohistochemistry, Western Blot); details: for right ear thickness on day 24 / skin lesion score on day 24: 50 μL per ear once a day, day 7 to day 23; for right ear thickness on day 24 / skin lesion score on day 24 / ICAM-1 positive rate, immunohistochemistry / Ki67 positive rate, immunohistochemistry / VCAM-1 positive rate, immunohistochemistry: vs vehicle group
Excerpt: Experimental animals involved in the following embodiments were SPF-grade BALB/c mice (≥7 weeks old, female). The scoring criteria for skin lesions involved in the following embodiments are shown in Table 1 and the histopathological scoring criteria are shown in Table 2. [table] The day of grouping was defined as day 0. Mice were randomly divided into 5 groups: blank control (NC) group, model (OXA) group, blank cream (vehicle) group, 0.1%-Compound 1 cream group, and 0.5%-Compound 1 cream group; the NC group had 5 animals, the other groups each had 10 animals. Each group except NC group was treated for modeling AD. Day 0:0.8%-OXA solution was applied to the auricle of both ears at 20 μL per ear. Day 7, 10, 12, 14, 17, 19, 21, and 23:0.4%-OXA solution was applied to the auricle of both ears at 20 μL per ear. Each group except NC group and OXA group was administrated. The administration started from day 7 to day 23, and the mice was administrated once a day at the auricle of both ears by 50 μL per ear (100 μL per mouse). The condition of the animals was observed during the experimental period, and the auricle was scored for skin lesions (see Table 1 for skin lesion scoring criteria), and the thickness of the ears was measured. The mice were euthanized, and their ear tissues were retained for immunohistochemistry and Western Blot analysis. [table]

MC903-induced AD model [3] = test: MC903-induced AD mouse model, Example 3 (ear swelling, skin thickness, mast cells, histopathology, serum IgE ELISA)
Excerpt: Experimental animals involved in the following embodiments were SPF-grade BALB/c mice (≥7 weeks old, female). The scoring criteria for skin lesions involved in the following embodiments are shown in Table 1 and the histopathological scoring criteria are shown in Table 2. [table] This example explores the preventive and therapeutic effect of a small-molecule diterpene derivative on the MC903-induced AD model, including the following: • The day of grouping was defined as day 0. Mice were randomly divided into 5 groups: blank control (NC) group, model (MC903) group, blank cream (vehicle) group, 0.1%-Compound 1 cream group, and 0.5%-Compound 1 cream group; each group had 10 animals. Each group except NC group was treated for modeling AD. From day 0 to day 10:0.1 nmol/μL-MC903 solution was applied to the auricle of right ear at 20 μL once a day. Each group except NC group and MC903 group was administrated. The administration started from day 3 to day 10, and the mice was administrated once a day at the auricle of right ear by 50 μL. The condition of the animals was observed during the experimental period. The mice were euthanized, and their ear tissues were retained for the degree of ear swelling measurement, skin thickness measurement, mast cell counting and immunohistochemical analysis, and their blood tissues were retained for ELISA. [table]

MC903-induced AD model [4] = test: MC903-induced AD mouse model, itching symptoms (scratching times), Example 4; details: cream 0.1% and 0.5%, right auricle, day 3 to day 10; video on the day before the experiment ended
Excerpt: Experimental animals involved in the following embodiments were SPF-grade BALB/c mice (≥7 weeks old, female). This example explores the preventive and therapeutic effect of a small-molecule diterpene derivative to itching symptoms on the MC903-induced AD model, including the following: • The day of grouping was defined as day 0. Mice were randomly divided into 5 groups: blank control (NC) group, model (MC903) group, blank cream (vehicle) group, 0.1%-Compound 1 cream group, and 0.5%-Compound 1 cream group; each group had 10 animals. Each group except NC group was treated for modeling AD. From day 0 to day 10:0.1 nmol/μL-MC903solution was applied to the auricle of right ear at 20 μL once a day. Each group except NC group and MC903 group was administrated. The administration started from day 3 to day 10, and the mice was administrated once a day at the auricle of right ear by 50 μL. The administration method for modeling and the design of subject dosage are same as Example 3. On the day before the experiment ended, the mice were videoed, and the mice of AD model were evaluated through the video about their scratching times in 15 min.

[5] = 50 μL per ear on auricle once a day, compared with vehicle group
[6] = cream, 0.1% and 0.5% groups together
[7] = cream, 0.1% and 0.5%, ear tissue
[8] = cream 0.1% and 0.5%, right auricle, day 3 to day 10

With `C=C1C(=O)[C@@]23[C@H](O)C[C@@H]4C(C)(C)c5nc(N(C(C)C)C(C)C)sc5C[C@@]4(C)[C@@H]2CC[C@@H]1[C@H]3O` [Compound 7] the “skin lesion score on day 24” value (OXA-induced AD model [1]; [5]) was “effectively reduce the skin lesion score” and the “OXA-induced AD-like lesions (conclusion of Example 1)” value (OXA-induced AD model [1]) was “significantly ameliorate the OXA-induced AD-like lesions”.

In the case of `C=C1C(=O)[C@@]23[C@H](O)C[C@@H]4C(C)(C)c5nc(NC)sc5C[C@@]4(C)[C@@H]2CC[C@@H]1[C@H]3O` [Compound 3], the “skin lesion score on day 24” value (OXA-induced AD model [1]; [5]) is reported as “do not exert a significant anti-atopic dermatitis effect”.

With `C=C1C(=O)[C@@]23[C@H](O)C[C@@H]4C(C)(C)c5nc(N)sc5C[C@@]4(C)[C@@H]2CC[C@@H]1[C@H]3O` [Compound 2] the “skin lesion score on day 24” value (OXA-induced AD model [1]; [5]) was “do not exert a significant anti-atopic dermatitis effect”.

In the case of `C=C1C(=O)[C@@]23[C@H](O)C[C@@H]4C(C)(C)c5nc(N(CCC)CCC)sc5C[C@@]4(C)[C@@H]2CC[C@@H]1[C@H]3O` [Compound 6], the “skin lesion score on day 24” value (OXA-induced AD model [1]; [5]) is reported as “effectively reduce the skin lesion score” and the “OXA-induced AD-like lesions (conclusion of Example 1)” value (OXA-induced AD model [1]) is reported as “significantly ameliorate the OXA-induced AD-like lesions”.

`C=C1C(=O)[C@@]23[C@H](O)C[C@@H]4C(C)(C)c5nc(N(C)C)sc5C[C@@]4(C)[C@@H]2CC[C@@H]1[C@H]3O` [Compound 1] was tested, and the “right ear thickness on day 24” value (OXA-induced AD model [2]; 0.1% cream) was “statistically different from the vehicle group”, the “skin lesion score on day 24” value (OXA-induced AD model [2]; 0.1% cream) was “statistically different from the vehicle group” and the “ICAM-1 positive rate, immunohistochemistry” value (OXA-induced AD model [2]; 0.1% cream, ear tissue) was “reduced”. For the same molecule, the “Ki67 positive rate, immunohistochemistry” value (OXA-induced AD model [2]; 0.1% cream, ear tissue) was “reduced (statistically different)”, the “VCAM-1 positive rate, immunohistochemistry” value (OXA-induced AD model [2]; 0.1% cream, ear tissue) was “reduced” and the “right ear thickness on day 24” value (OXA-induced AD model [2]; 0.5% cream) was “statistically different from the vehicle group”. The “skin lesion score on day 24” value (OXA-induced AD model [2]; 0.5% cream) was “statistically different from the vehicle group”, the “ICAM-1 positive rate, immunohistochemistry” value (OXA-induced AD model [2]; 0.5% cream, ear tissue) was “reduced” and the “Ki67 positive rate, immunohistochemistry” value (OXA-induced AD model [2]; 0.5% cream, ear tissue) was “reduced (statistically different)”. For the same molecule, the “VCAM-1 positive rate, immunohistochemistry” value (OXA-induced AD model [2]; 0.5% cream, ear tissue) was “reduced”, the “OXA-induced AD-like lesions (conclusion of Example 2)” value (OXA-induced AD model [2]; cream, 0.1% and 0.5%) was “significantly ameliorate the OXA-induced AD-like lesions” and the “ear thickness (conclusion)” value (OXA-induced AD model [2]; [6]) was “effectively ameliorate the ear thickness”. For the same molecule, the “epidermal overproliferation (Ki67) and aberrant expression of adhesion factor (ICAM-1, VCAM-1), conclusion” value (OXA-induced AD model [2]; [6]) was “effectively inhibit the epidermal overproliferation and aberrant expression of adhesion factor”, the “skin lesion score (conclusion)” value (OXA-induced AD model [2]; [6]) was “effectively reduce the skin lesion score” and the “ICAM-1 protein expression (gray value), Western Blot” value (OXA-induced AD model [2]; [7]) was “consistent with the immunohistochemical results”. For the same molecule, the “VCAM-1 protein expression (gray value), Western Blot” value (OXA-induced AD model [2]; [7]) was “consistent with the immunohistochemical results”, the “skin lesion score on day 24” value (OXA-induced AD model [1]; [5]) was “effectively reduce the skin lesion score” and the “OXA-induced AD-like lesions (conclusion of Example 1)” value (OXA-induced AD model [1]) was “significantly ameliorate the OXA-induced AD-like lesions”. The “degree of ear swelling” value (MC903-induced AD model [3]; cream 0.1% and 0.5%, 50 μL on right auricle once a day, day 3 to day 10) was “effectively ameliorate the ear swelling”, the “dermal thickness (ear histological scanning)” value (MC903-induced AD model [3]; [8]) was “effectively ameliorate the thickening of epidermis and dermis” and the “epidermal thickness (ear histological scanning)” value (MC903-induced AD model [3]; [8]) was “effectively ameliorate the thickening of epidermis and dermis”. The “histopathology scores (total, parakeratosis, epidermal defect, dermal papilla thickening, capillary proliferation, inflammatory infiltration), HE staining” value (MC903-induced AD model [3]; [8]) was “effectively ameliorates the extent of MC903-induced AD-like lesions”, the “mast cell counting (toluidine blue staining of ear tissue sections)” value (MC903-induced AD model [3]; [8]) was “significantly reduces the number of mast cells” and the “serum IgE concentration (ELISA)” value (MC903-induced AD model [3]; [8]) was “inhibits the serum IgE concentration”. For the same molecule, the “MC903-induced AD-like lesions (conclusion of Example 3)” value (MC903-induced AD model [3]; cream, 0.1% and 0.5%) was “significantly ameliorate the MC903-induced AD-like lesions” and the “scratching times in 15 min (extent of itching)” value (MC903-induced AD model [4]) was “effectively ameliorates the extent of itching”.

In the case of `C=C1C(=O)[C@@]23[C@H](O)C[C@@H]4C(C)(C)c5nc(N(CC)CC)sc5C[C@@]4(C)[C@@H]2CC[C@@H]1[C@H]3O` [Compound 5], the “skin lesion score on day 24” value (OXA-induced AD model [1]; [5]) is reported as “effectively reduce the skin lesion score” and the “OXA-induced AD-like lesions (conclusion of Example 1)” value (OXA-induced AD model [1]) is reported as “significantly ameliorate the OXA-induced AD-like lesions”.

For `C=C1C(=O)[C@@]23[C@H](O)C[C@@H]4C(C)(C)c5nc(NCC)sc5C[C@@]4(C)[C@@H]2CC[C@@H]1[C@H]3O` [Compound 4], the “skin lesion score on day 24” value (OXA-induced AD model [1]; [5]) was “do not exert a significant anti-atopic dermatitis effect”.

For `C=C1C(=O)[C@@]23[C@H](O)C[C@@H]4C(C)(C)c5nc(Nc6ccncc6)sc5C[C@@]4(C)[C@@H]2CC[C@@H]1[C@H]3O` [Compound 8], the “right ear thickness on day 24” value (OXA-induced AD model [1]; [5]) was “Vehicle group>Compound 8 group” and the “skin lesion score on day 24” value (OXA-induced AD model [1]; [5]) was “do not exert a significant anti-atopic dermatitis effect”.
